Key:
ETs (ET-1, ET-2, ET-3) = test: Plasma endothelin levels after insulin (RIA); assay type: in vivo; conditions: rats; two minutes after insulin 1.5 μg/100 g b.w.; no bpV(phen)
Description: The data presented in Table III show the effect of bpV(phen) on the plasmatic levels of ETs. […] Two minutes following insulin administration (1.5 μg/100 g b.w, or vehicle), the plasma levels of ETs were determined. Insulin administration induced a strong increase of seric ET concentration (54). […] In addition, bpV(phen) decreased the insulin-stimulated levels of plasmatic ETs below control levels. […] ETs (ET-1, ET-2, ET-3) were measured by RIA (Amersham kit RPA 555) after lyophilization and extraction on C2 columns (500 mg). Results are mean ±SEM, p<0.0209, control (n=4) vs Insulin, pV (n=3).

[1] = test system: Human umbilical vein endothelial cells (HUVECs); conditions: read-out: approximate IC50, endothelial cell proliferation; 96 hours in culture
Description: Each experiment was performed in triplicate. The culture medium was changed daily.

HUVECs = test: HUVEC differentiation and organization into tubular-like structures in fibrin matrix; assay type: cell-based, Human; set-up: key to cords / tubes / Stell. struct.: †: Dead cells
Description: Alternatively, HUVECs cultured in a fibrin matrix can form 3-dimensional tubular-like structures in the presence of serum (103). This assay was performed in the presence of either bpV(phen), bpv(pic) or vanadate to assess the influence of each one of these compounds on HUVEC differentiation and organization (Table 1). HUVECs were seeded on the bottom of gelatin-coated wells at high density to provide a confluent monolayer at 48 hours.
Then, 50 000 HUVECs/ml were embedded in fibrinogen solution prior to polymerization. The fibrin matrix was covered with culture medium containing the molecule to be tested, while culture medium without any of these molecules served as controls. Cell behavior was observed periodically by phase contrast microscopy.

Rat aorta rings = test: Rat aortic ring assay (cell/microvessel migration in fibrin gel); assay type: cell-based
Text: FIG. 3: Micrographs of the cell migration from aortic rings embedded in fibrin (×12).
FIG. 4: Quantification of the cell migration from aortic rings in the presence of orthovanadate (plain bars); bpV(phen) (light gray bars); and bpV(pic) (dark gray bars). The control appears as an empty bar. Means and standard errors of the means are presented.
Rat aorta rings were embedded in fibrin matrix as previously described (107). Thoracic aortas excised from adult rats were rinsed in Hank's balanced salt solution (HBSS), and cleansed of periadventitial. One-mm long aortic rings were sectioned and rinsed in culture medium. Each of the aortic rings were then embedded in fibrin gel matrix. Migration of microvessels in fibrin gel was quantified by measuring the distance from the external surface of rat aortic rings towards the migrating vessels. Measurements were performed at day 15 by digitizing morphometry with a NIH image analysis system (FIGS. 3 and 4).

[2] = test system: vitelline membrane of chick embryos; test: Embryonic vascularization test (EVT) ex ovo; assay type: in vivo; conditions: for approximate IC50, neovascularization (regardless of the scoring system): per methylcellulose disc
Text: FIG. 2: A and B show an anti-angiogenic response to bpV(phen), orthovanadate (Van) and protamine (Prot) using a vascularization test on the vitelline membrane of chick embryos. Each point represents a minimum of 15 embryos (15 to 28).
The normal development of a chick embryo involves the formation of an external vascular system which is located in the vitelline membrane and which carries nutrients from the vitellus (yolk of the egg) to the developing embryo. When placed onto the vitelline membrane, anti-angiogenic substances can inhibit blood vessel development in the vitelline membrane. To facilitate access to the vitelline membrane, chick embryos were transferred to a sterile culture box (Petri dish) and placed in a humidity- and temperature-controlled incubator. Embryos could then develop in this ex ovo condition for several days.
An aliquot of the tested compound was mixed with a methylcellulose solution and allowed to air-dry into thin discs. Methylcellulose forms an inert matrix from which the tested compound can diffuse slowly. Methylcellulose discs containing the tested compound were placed on the external border of the vascular perimeter of the vitelline membrane where the angiogenic process was still active.
The effects of the discs containing the tested compound on proximal vascular development were, in all cases, compared with those of discs containing control buffer. The discs were placed on the embryos' vitelline membrane on Day 0 or Day 1 of the ex ovo growth process; at this point, only beginnings of the main blood vessels are invading the vitellus. The embryos were then put in culture conditions until vascularization was assessed (approximately 24 h). Control buffer- and compound-containing discs were in all cases added simultaneously on the vitelline membrane of the same embryo. Both discs were arranged in a symmetrical fashion with respect to the cephalo-caudal axis of the embryo in order to minimize inter-individual variations when comparing the tested compounds with controls.
[…] After one day in culture, the level of vascularization in the area covered by the discs was graded by a pair of scientists in the usual blind fashion. To facilitate the location of the discs, black O-rings were placed around them just after their placement on the vitelline membrane. The evaluation scale for the EVTs was based on two different scoring systems.
Blood vessel formation was assessed in a blind fashion. The areas of the vitelline membranes that lay beneath the methylcellulose discs were scored for the degree of vascularization, using two scoring systems (“N/+” or “1-2-3”). The following selection criteria were used:
A score of “N” for “Normal” was attributed when all the following conditions were met:
Blood vessels in the evaluated area grew along their path with no abnormal deviation. Collateral branching density was normal and the growth path of the lateral branches was also normal.
A score of “+” was attributed when at least one of the following conditions was met:
1-2-3 Grading Scale System:
A score of 3 was attributed when the following conditions were met:
A score of 2 was attributed when at least one of the following conditions was met:
A score of 1 was attributed when at least one of the following conditions was met:
A score of 3 meant that blood vessel development was normal whereas a score of 1 indicated the greatest degree of angiostatic activity.

left carotid artery = test: Balloon angioplasty of the left carotid artery (restenosis); assay type: in vivo, Male Sprague-Dawley rats
Description: The data presented in Table IV show the effect of the pV compound bpV(bipy) on restenosis. Male Sprague-Dawley rats (325-350 g) were anaesthetized with Rogarsetic, a mixture of ketamine hydrochloride and xylazine hydrochloride. The animals were divided into two groups of 14-31 rats that underwent balloon angioplasty of the left carotid artery, with or without treatment (108). The treated group received bpV (bipy) (10 mg/kg/i.p. b.i.d.) for 14 days, starting on the day of the angioplasty. Every animal in each group underwent balloon angioplasty of the left external carotid whereas the contra-lateral carotid served as a control for each animal. The left carotid artery balloon angioplasty was performed under aseptic conditions. The left external carotid was isolated and an arteriotomy was performed. A 2F Fogarty arterial embolectomy catheter was then inserted in the left common carotid and positioned near the aortic arch. The balloon was then inflated and retracted with a twisting motion to its insertion point. This procedure was repeated twice and the external carotid was ligated. There were no differences in the lumina (L), intima (I), media (M), the ratio of I/M and calculated value of (M−L/P) as a measure of neointimal proliferation (NIP) between normal, non-ballooned carotid artery of treated and non-treated rats, serving as controls (data not shown).

[3] = anti-angiogenic effect on stellate structures
[4] = 10 mg/kg/i.p. b.i.d. for 14 days, ballooned left carotid
[5] = treated vs non-treated, 10 mg/kg/i.p. b.i.d. 14 days

## Insulin: insulin administered to rats to induce an increase of ET concentration
ETs (ET-1, ET-2, ET-3)
  Plasma endothelins: 253.10 pg/mL

## O=C(O)c1ccccn1.OO.OO.[K+].[K+].[O]=[V] [bpV(pic), potassium bisperoxo(pyridine-2-carboxylato)oxovanadate]
[1]
  IC50: ~3.5 µM
HUVECs; 1, 2 and 3.5 μM
  structures observed by phase contrast microscopy: cords and tubes were observed
Rat aorta rings; 10-25 μM
  cell migration from aortic rings: inhibition was seen

## [O]=[V]([O-])([O-])[O-] [orthovanadate]
HUVECs; 10 μM
  structures observed by phase contrast microscopy: cords were still apparent
HUVECs; 25 μM
  Stell. struct.: †
  cords: †
  structures observed by phase contrast microscopy: dead cells were sparsely distributed
  tubes: †
HUVECs; [3]
  times less potent than bpV(phen): ≥ 5 times
  times less potent than bpV(pic): at least 3 times
Rat aorta rings; 3.5 μM
  cell migration from aortic rings: no effect
Rat aorta rings; 25 μM
  cell migration from aortic rings: partial inhibition
[2]; 0.001 μg, Assay 3
  Anti-angio.activity 1 to 3 (1: no angiogenesis; 3: normal angiogenesis): 2.8
  Anti-angio.activity % (proportion of embryos showing an anti-angiogenic response): 7%
[2]; 0.001 μg, Assay 5
  Anti-angio.activity 1 to 3 (1: no angiogenesis; 3: normal angiogenesis): 2.8
  Anti-angio.activity % (proportion of embryos showing an anti-angiogenic response): 7%
[2]; 0.01 μg, Assay 3
  Anti-angio.activity 1 to 3 (1: no angiogenesis; 3: normal angiogenesis): 2.4
  Anti-angio.activity % (proportion of embryos showing an anti-angiogenic response): 24%
[2]; 0.01 μg, Assay 5
  Anti-angio.activity 1 to 3 (1: no angiogenesis; 3: normal angiogenesis): 2.4
  Anti-angio.activity % (proportion of embryos showing an anti-angiogenic response): 24%
[2]; 0.1 μg, Assay 3
  Anti-angio.activity 1 to 3 (1: no angiogenesis; 3: normal angiogenesis): 2.4
  Anti-angio.activity % (proportion of embryos showing an anti-angiogenic response): 28%
[2]; 0.1 μg, Assay 5
  Anti-angio.activity 1 to 3 (1: no angiogenesis; 3: normal angiogenesis): 2.4
  Anti-angio.activity % (proportion of embryos showing an anti-angiogenic response): 28%
[2]; 1 μg, Assay 3
  Anti-angio.activity 1 to 3 (1: no angiogenesis; 3: normal angiogenesis): 2.0
  Anti-angio.activity % (proportion of embryos showing an anti-angiogenic response): 70%
[2]; 1 μg, Assay 4
  Anti-angio.activity 1 to 3 (1: no angiogenesis; 3: normal angiogenesis): 1.7
  Anti-angio.activity % (proportion of embryos showing an anti-angiogenic response): 57%
[2]; 1 μg, Assay 5
  Anti-angio.activity 1 to 3 (1: no angiogenesis; 3: normal angiogenesis): 1.9
  Anti-angio.activity % (proportion of embryos showing an anti-angiogenic response): 64%
[2]
  approximate IC50, neovascularization (regardless of the scoring system): ~0.6 µg

## [K+].[O]=[V-]12([O][O]1)[O][O]2.c1ccc(-c2ccccn2)nc1 [bpV(bipy), potassium bisperoxo(2,2′-bipyridyl) oxovanadate]
Left carotid artery; [4]
  I (intima): 0.112 mm^2
  I/M: 1.086
  L (lumina): 0.112 mm^2
  M (media): 0.104
  NIP (neointimal proliferation): 0.045 mm
Left carotid artery; [5]
  decrease in NIP: 32%
  decrease in the I/M ratio: 32%
  increase in the opening of the L: 28%
  reduction in the thickness of the I: 21%

## Protamine
[2]; 5 μg, Assay 1
  Anti-angio.activity 1 to 3 (1: no angiogenesis; 3: normal angiogenesis): 2.3
  Anti-angio.activity % (proportion of embryos showing an anti-angiogenic response): 23%
[2]; 5 μg, Assay 4
  Anti-angio.activity 1 to 3 (1: no angiogenesis; 3: normal angiogenesis): 2.3
  Anti-angio.activity % (proportion of embryos showing an anti-angiogenic response): 9%
[2]; 5 μg, Assay 5
  Anti-angio.activity 1 to 3 (1: no angiogenesis; 3: normal angiogenesis): 2.3
  Anti-angio.activity % (proportion of embryos showing an anti-angiogenic response): 16%
[2]; 10 μg, Assay 4
  Anti-angio.activity 1 to 3 (1: no angiogenesis; 3: normal angiogenesis): 2.1
  Anti-angio.activity % (proportion of embryos showing an anti-angiogenic response): 54%
[2]; 10 μg, Assay 5
  Anti-angio.activity 1 to 3 (1: no angiogenesis; 3: normal angiogenesis): 2.1
  Anti-angio.activity % (proportion of embryos showing an anti-angiogenic response): 54%
[2]; 20 μg, Assay 1
  Anti-angio.activity 1 to 3 (1: no angiogenesis; 3: normal angiogenesis): 2.0
  Anti-angio.activity % (proportion of embryos showing an anti-angiogenic response): 46%
[2]; 20 μg, Assay 2
  Anti-angio.activity 1 to 3 (1: no angiogenesis; 3: normal angiogenesis): 1.5
  Anti-angio.activity % (proportion of embryos showing an anti-angiogenic response): 80%
[2]; 20 μg, Assay 3
  Anti-angio.activity 1 to 3 (1: no angiogenesis; 3: normal angiogenesis): 1.5
  Anti-angio.activity % (proportion of embryos showing an anti-angiogenic response): 79%
[2]; 20 μg, Assay 4
  Anti-angio.activity 1 to 3 (1: no angiogenesis; 3: normal angiogenesis): 1.8
  Anti-angio.activity % (proportion of embryos showing an anti-angiogenic response): 80%
[2]; 20 μg, Assay 5
  Anti-angio.activity 1 to 3 (1: no angiogenesis; 3: normal angiogenesis): 1.7
  Anti-angio.activity % (proportion of embryos showing an anti-angiogenic response): 71%
[2]; 30 μg, Assay 4
  Anti-angio.activity 1 to 3 (1: no angiogenesis; 3: normal angiogenesis): 1.8
  Anti-angio.activity % (proportion of embryos showing an anti-angiogenic response): 67%
[2]; 30 μg, Assay 5
  Anti-angio.activity 1 to 3 (1: no angiogenesis; 3: normal angiogenesis): 1.8
  Anti-angio.activity % (proportion of embryos showing an anti-angiogenic response): 67%
[2]
  approximate IC50, neovascularization (regardless of the scoring system): ~11 µg

From patent publication US20030055106A1, “Therapeutic uses of peroxometallic compounds” (priority 1999, published 2003)
